Measured values published in US11096917B2, “Composition for preventing or treating muscle diseases, comprising suberic acid or pharmaceutically acceptable salt thereof as active ingredient” (INDUSTRY-ACADEMIC COOPERATION FOUNDATION, YONSEI UNIVERSITY, priority 2017, dated 2021).

Key:
[1] = test system: mouse myoblast cell line (C2C12 cells); assay: Giemsa-Wright staining; thickness, length and fusion index of myotubes reduced by dexamethasone; format: cell-based; details: 100 μM suberic acid + 50 μM dexamethasone, 2 days, vs dexamethasone alone
Protocol: (§1) A mouse myoblast cell line (C2C12 cells) was purchased from the American Type Culture Collection (ATCC, Manassas, Va., USA), and the purchased cells were cultured at 37° C. in a 5% CO2 incubator using a 10% fetal bovine serum medium (Gibco-BRL). When the cultured cells reached 80% confluence, the cells were differentiated into myotubes using a 2% horse serum medium (Gibco-BRL).
(§2) From the fourth day of differentiation, the cells were treated with 50 μM dexamethasone (dexa; Sigma) and 100 μM suberic acid (CAS Number 505-48-6, Sigma) for 2 days.
(§3) The cells were treated with 50 μM dexamethasone (dexa; Sigma) in the same manner as in Example 1.
The myotubes prepared in Example 1 were washed twice with phosphate-buffered saline (PBS), and then immobilized with 100% methanol for 10 minutes. When the immobilization was completed, the myotubes were air-dried at room temperature for 10 minutes, and then stained for 30 minutes by dropwise addition of a Giemsa-Wright staining solution (ASAN Pharmaceutical Co., Ltd., Seoul) which is used to specifically stain myotubes.
The myotubes thus stained were photographed at 100× and 40× magnifications using a fluorescence microscope (IX 71, Olympus), and then analyzed using Image J software (USA). Six regions in each well were randomly selected and photographed using a microscope. The thicknesses, lengths and fusion indexes of at least 100 myoblast cells in each well were analyzed (in triplicate/group).

[2] = test system: p-4E-BP1; assay: Western blotting of p-4E-BP1 in dexamethasone-treated myotubes; format: cell-based, mouse; details: 100 μM suberic acid + 50 μM dexamethasone, 2 days, vs dexamethasone alone; FIG. 2A
Protocol: as §1, §2, §3
(§4) To perform Western blotting in the cells, 500 μL of a lysis buffer, which included 100 mM Tris-HCl (pH 7.4), 5 mM EDTA, 50 mM sodium pyrophosphate, 50 mM NaF, 100 mM orthovanadate, 1% Triton X-100, 1 mM phenylmethanesulfonyl fluoride, 2 μg/mL aprotinin, 1 μg/mL pepstatin A, and 1 μg/mL leupeptin, was added to each well from which a medium was removed, and the cell suspension was harvested, and then centrifuged at 4° C. and 1,300×g for 20 minutes. Thereafter, the middle layer was taken, and proteins were quantified according to the Bradford method (Bio-Rad). […] The bands visualized on the X-ray film were scanned, and then quantified using Quantity One analysis software (Bio-Rad).

[3] = test system: p-p70S6K1; assay: Western blotting of p-p70S6K1 in dexamethasone-treated myotubes; format: cell-based, mouse; details: 100 μM suberic acid + 50 μM dexamethasone, 2 days, vs dexamethasone alone; FIG. 2A
Protocol: as §1, §2, §3, §4

[4] = test system: MaFbx/atrogin-1; assay: RT-PCR of MaFbx/atrogin-1 gene expression in dexamethasone-treated myotubes; format: cell-based, mouse; details: 100 μM suberic acid + 50 μM dexamethasone, 2 days, vs dexamethasone alone; FIG. 2B
Protocol: as §1, §2, §3
(§5) 1×10^7 mouse myoblast cells were added to 334 μL of a TRIzol solution, and pulverized. Thereafter, the resulting cell solution was centrifuged at 4° C. and 12,000× g for 10 minutes. The supernatant was transferred to a new tube, and 67 μL of chloroform was added thereto, and vortexed. The supernatant was again transferred to a new tube, and isopropanol was added so that a ratio of the supernatant and isopropanol was 1:1. […] A concentration of the extracted RNA sample was measured at wavelengths of 260 nm and 280 nm using a UV/VIS spectrophotometer (Beckman coulter, DU730), and the integrity of the RNA sample was determined by means of agarose gel electrophoresis. […]

[5] = test system: MuRF1; assay: RT-PCR of MuRF1 gene expression in dexamethasone-treated myotubes; format: cell-based, mouse; details: 100 μM suberic acid + 50 μM dexamethasone, 2 days, vs dexamethasone alone; FIG. 2B
Protocol: as §1, §2, §3, §5

[6] = test system: C57BL/6N mice; assay: Grip strength test in high-fat diet-induced muscle loss mice; format: in vivo, mouse; details: 0.2% suberic acid in high fat diet, 10 weeks, force (N) per weight (kg), vs high-fat diet mice; FIG. 3 (B)
From the text: (§6) Twenty-four 5-week-old male C57BL/6N mice (Mating, Korea) were adapted to laboratory circumstances for a week while feeding a commercially available normal diet (rodent chow), and then assigned into three groups (a Chow group, a HFD group, and a suberic acid-treated group; n=8 mice per group) according to a randomized block design, and bred for 10 weeks. An obesity-inducing diet used in this experiment was a high fat diet (HFD: 40% fat calories, 17 g of lard+3% corn oil/100 g of diet), and a suberic acid-supplemented high fat diet (Suberic Acid) had the same compositions as the HFD, provided that the suberic acid-supplemented high fat diet included 0.2% suberic acid (Table 2). A normal diet group (Chow) took a commercially available rodent chow. The suberic acid was purchased from Sigma-Aldrich Corp.
To measure grip strength of the mice, at 10 weeks of breeding, the grip strength of the mice was measured using four limbs. A force (N) generated by a mouse gripping a wire grid was measured a total of five times using a grip strength meter (Daejong Instrument Industry Co., Ltd., Korea) equipped with a wire grid (20×10 cm), and an at least one-minute break between every measurement was provided. The experimental results were calculated by dividing the measured force (N) by the weight (kg) of the mouse. […]

[7] = test system: C57BL/6N mice; assay: H&E staining of muscle tissue, fiber diameter, in high-fat diet mice; format: in vivo, mouse; details: 0.2% suberic acid in high fat diet, 10 weeks, vs high-fat diet mice
From the text: as §6
A muscle tissue was extracted from a mouse, immobilized with 10% formalin, stained with a Hematoxylin and Eosin (H&E) stain, and then submitted to the Korea CFC (Gyeonggi-do, Korea). […]
The statistical analysis of all data was carried out using a statistical package for the social sciences (SPSS version 21.0, IBM, Armonk, N.Y., USA) PC package. In this case, the analyzed numerical values are expressed as the mean±SEM, and a significant difference between the groups was verified using ANOVA.

O=C(O)CCCCCCC(=O)O [suberic acid]
increase in thickness (diameter) of the myotubes ([1]; FIG. 1B): 58%
increase in fusion index of the myotubes ([1]; FIG. 1C): 53%
increase in length of the myotubes ([1]; FIG. 1D): 100%
amount of p-4E-BP1 protein [2]: significantly increased again
amount of p-p70S6K protein [3]: significantly increased again
expression of MaFbx/atrogin-1 [4]: significantly decreased
expression of MuRF1 [5]: significantly decreased
increase in grip strength of the mice [6]: approximately 21%
increase in fiber diameter of the rectus femoris ([7]; FIG. 4 (A)): 10%
increase in fiber diameter of the soleus ([7]; FIG. 4 (B)): 15%
